Laboratory results reported in patent US20250228820A1, “METHODS FOR PREVENTING OR SLOWING THE PROGRESSION OF COGNITIVE DECLINE OR IMPAIRMENT IN SUBJECTS DISPLAYING NORMAL COGNITIVE PERFORMANCE” (AGENEBIO, INC., priority 2022, published 2025).
“And” between values parts separate entries of the source, which are not always exact repeats. Identical values can stand only once.

Assays:
[1] = test system: hippocampal functional connectivity; experiment: Phase II placebo-controlled crossover trial: hippocampal functional connectivity by resting-state fMRI in cognitively normal subjects; type: in vivo, human
Method: (§1) A phase II, randomized, double-blind, placebo-controlled crossover clinical trial of 26 CN subjects (ranging in age from 55 to 75 years) to assess the potential effect of levetiracetam on hippocampal functional connectivity (a risk marker for cognitive decline and cognitive impairment and progression to AD) was conducted. 35 patients were recruited and assessed for eligibility and the 26 eligible subjects were separated into Group A or Group B treatment groups. Group A subjects received an oral placebo tablet daily for two weeks followed by a four-week washout period; then, the subjects received an oral levetiracetam tablet daily for two weeks (i.e., two-week placebo treatment, four-week washout period, and two-week levetiracetam treatment). Group B subjects received treatment using the reverse sequence (i.e., two-week levetiracetam treatment, four-week washout period, and two-week placebo treatment). The tablet was characterized by 220 mg levetiracetam in extended release form, i.e. Tablet D (Table 2) above.
For each scanning session, imaging was carried out on a 3T GE MR750 whole-body scanner (GE Healthcare, Waukesha WI) with a body transmit and a 32-channel head receive coil (Nova Medical, Wilmington MA). Imaging acquisition included T1- and T2-weighted high resolution, anatomical images (TR=2521.27 ms, TE=3.596 ms, Voxel resolution: 0.5×0.5×0.8 mm3, FOV: 25.6 cm, Flip angle: 8°). […]
Total Functional connectivity indices (TFCI) were obtained based on the traditional region of interest (ROI)-based method (Chen et al, 2011) in which individual cerebrums were automatically parcellated into 90 regions, per the Automated Anatomical Labeling (AAL) toolbox (3), and the FCI was calculated as the summation of Pearson cross-correlation coefficients between the seed region and all other regions in the cerebrum. […] Second, functional connectivity between each ROI and the other brain regions was calculated using the Pearson cross-correlation analysis. […]

[2] = Levetiracetam level in blood after treatment in the LEV-HFC trial; type: in vivo, human; conditions: after two-week treatment with levetiracetam 220 mg extended release daily
Method: as §1
A total of 25 participants (15 women with a mean [SD] age of 65.9 [3.8] years and 10 men with a mean [SD] age of 66.7 [5.5] years) were enrolled, randomized (12 participants to group A and 13 participants to group B), and completed the study. […]

[3] = cited from earlier work

LEV [μg] in blood, AVG ([2]; average of 25 subjects): 4.3 µg
Structure (SMILES): CC[C@@H](C(N)=O)N1CCCC1=O [Levetiracetam, (2S)-2-(2-oxopyrrolidin-1-yl) butanamide]
Functional connectivity of the hippocampus network, levetiracetam compared with placebo ([1]; 220 mg extended release tablet (Tablet D) daily for two weeks, 25 CN subjects, paired t-test, t=−2.8044, p<0.0098, FIG. 6): significantly decreased
Period I FC (hippocampal functional connectivity) ([1]; individual subjects, first two-week period, levetiracetam 220 mg extended release daily (numbers without *)): 0.209 and 0.602 and 0.148 (2×) and 0.241 and 0.138 and 0.099 and 0.136 and 0.504 and 0.253 and 0.367 and 0.173 and 0.303
Period II FC (hippocampal functional connectivity) ([1]; individual subjects, second two-week period after four-week washout, levetiracetam 220 mg extended release daily (numbers without *)): 0.264 and 0.238 and 0.366 and 0.013 and 0.352 and 0.31 and 0.048 and 0.177 (2×) and 0.17 and 0.106 and 0.28
LEV [μg] in blood ([2]; individual subjects, listed as LEV): 3 μg and 4.5 μg and 4.8 μg and 6.1 μg and 2.9 μg and 4.1 μg (2×) and 5.1 μg and 4.4 μg (2×) and 6.3 μg and 4.9 μg and 4.2 μg and 3.1 μg and 2.8 μg and 3.8 μg (2×) and 5.8 μg and 5 μg and 3.2 μg and 3.4 μg and 4 μg and 4.7 μg and 2 μg and 8.2 μg
Plasma half-life in elderly ([3]; expected in elderly due to decreased renal function): 9 to 10 h
Time of peak plasma concentrations ([3]; following oral administration): about 1 hour
Plasma half-life ([3]; in vivo): approximately 7±1 hour
Time to steady state ([3]; multiple twice-daily dosing): 2 days
Absorption after oral administration ([3]; oral): rapidly and almost completely absorbed
Effect of food on bioavailability ([3]; oral): not affected by food
